From patent US10875876B2, “Cyclized sulfamoylarylamide derivatives and the use thereof as medicaments for the treatment of hepatitis B” (priority 2015, dated 2020)
Like-named read-outs stand apart in the source and are kept apart here.

Experiments:
HBV = experiment: anti HBV activity, HepG2.117 cell line, intracellular HBV DNA by realtime PCR; type: cell-based; conditions: HepG2.117 cell line (Tet-off), 3 days of treatment, intracellular HBV DNA quantified by realtime PCR, read-out: HBV-AVE-HepG2.117 EC50
How it was run: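 Readout was intracellular HBV DNA by real-time PCR (HBV-specific primers and probe) after 3 days of compound exposure. Serial dilutions were tested in duplicate on HepG2.117 cells, a stable inducible HBV producer in which replication is switched on when doxycycline is absent.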

[1] = Cytotoxicity in HepG2 cells, Resazurin assay; conditions: human, HepG2 cells, TOX-HepG2-4 d CC50 (μM), HepG2 cells incubated for 4 days, viability by Resazurin assay
[2] = Hepatitis B virus, HepG2.117, 72 h

Row | SMILES | EC50 (HBV; [2]) [nM] | CC50 at 4 days [1] [µM] | EC50 (HBV) [nM]
1 | CCC(O)[C@H]1COc2c(cn(C)c2C(=O)Nc2ccc(F)c(C(F)F)c2)S(=O)(=O)N1 (stereo partly drawn) [Compound 124a, (3R)—N-[3-(difluoromethyl)-4-fluoro-phenyl]-3-(1-hydroxypropyl)-7-methyl-1,1-dioxo-3,4-dihydro-2H-pyrrolo[3,4-b][1,4,5]oxathiazepine-6-carboxamide] | 5 | > 25 | 
2 | CC(NCC(F)(F)F)C1CCc2c(cn(C)c2C(=O)Nc2cc(F)c(F)c(F)c2)S(=O)(=O)N1 (single isomer, unassigned) [Compound 218a, 7-methyl-1,1-dioxo-3-[1-(2,2,2-trifluoroethylamino)ethyl]-N-(3,4,5-trifluorophenyl)-2,3,4,5-tetrahydropyrrolo[3,4-f]thiazepine-6-carboxamide] | > 125 | > 25 | 
3 | C[C@@H]1Oc2c(cn(C)c2C(=O)Nc2ccnc(C(F)F)c2)S(=O)(=O)N[C@@H]1CO [compound 233] | > 500 | > 25 | 
4 | CC1CNc2c(cn(C)c2C(=O)Nc2ccc(F)c(F)c2)S(=O)(=O)N1 (stereo not shown) [Compound 67, N-(3,4-difluorophenyl)-3,7-dimethyl-1,1-dioxo-2,3,4,5-tetrahydropyrrolo[3,4-f][1,2,5]thiadiazepine-6-carboxamide] | 69 | > 25 | 
5 | CC(C)[C@@H]1Oc2c(cn(C)c2C(=O)Nc2ccc(F)c(F)c2)S(=O)(=O)N[C@H]1CO [compound 241] | > 250 | > 25 | 
6 | Cn1cc2c(c1C(=O)Nc1ccc(F)c(C#N)c1)OC[C@](C)(Cc1ccccc1)NS2(=O)=O [Compound 156, (3S)-3-benzyl-N-(3-cyano-4-fluoro-phenyl)-3,7-dimethyl-1,1-dioxo-2,4-dihydropyrrolo[3,4-b][1,4,5]oxathiazepine-6-carboxamide] | 9 | > 25 | 
7 | Cn1cc2c(c1C(=O)Nc1ccc(F)c(C#N)c1)CCC1(COC1)NS2(=O)=O [Compound 138, N-(3-cyano-4-fluoro-phenyl)-7-methyl-1,1-dioxo-spiro[4,5-dihydro-2H-pyrrolo[3,4-f]thiazepine-3,3′-oxetane]-6-carboxamide] | 29 | > 25 | 
8 | Cn1cc2c(c1C(=O)Nc1cc(F)c(F)c(F)c1)OC[C@H](C(O)C1CC1)NS2(=O)=O (single isomer, unassigned) [Compound 208a, 3-[cyclopropyl(hydroxy)methyl]-7-methyl-1,1-dioxo-N-(3,4,5-trifluorophenyl)-3,4-dihydro-2H-pyrrolo[3,4-b][1,4,5]oxathiazepine-6-carboxamide] | 8 | > 25 | 
9 | Cn1cc2c(c1C(=O)Nc1ccc(F)c(F)c1)OCC(C1CCNCC1)NS2(=O)=O (stereo not shown) [Compound 73, N-(3,4-difluorophenyl)-7-methyl-1,1-dioxo-3-(4-piperidyl)-3,4-dihydro-2H-pyrrolo[3,4-b][1,4,5]oxathiazepine-6-carboxamide] | 480 | > 25 | 
10 | Cn1cc2c(c1C(=O)Nc1ccc(F)c(F)c1)OCC(C(O)c1ccncc1)NS2(=O)=O (stereo not shown) [Compound 183, N-(3,4-difluorophenyl)-3-[hydroxy(4-pyridyl)methyl]-7-methyl-1,1-dioxo-3,4-dihydro-2H-pyrrolo[3,4-b][1,4,5]oxathiazepine-6-carboxamide] | 2 | > 25 | 
11 | CC1C=Cc2c(cn(C)c2C(=O)Nc2cc(F)c(F)c(F)c2)S(=O)(=O)N1 (single isomer, unassigned) [Compound 29, (*S)-3,7-dimethyl-1,1-dioxo-N-(3,4,5-trifluorophenyl)-2,3-dihydropyrrolo[3,4-f]thiazepine-6-carboxamide] | 5 | > 25 | 
12 | Cn1cc2c(c1C(=O)Nc1ccnc(C(F)F)c1)OCC(C)(CO)NS2(=O)=O (single isomer, unassigned) [Compound 215a, N-[2-(difluoromethyl)-4-pyridyl]-3-(hydroxymethyl)-3,7-dimethyl-1,1-dioxo-2,4-dihydropyrrolo[3,4-b][1,4,5]oxathiazepine-6-carboxamide] |  | > 25 | 62
13 | C[C@H](O)[C@H]1C=Cc2c(cn(C)c2C(=O)Nc2ccc(F)c(C#N)c2F)S(=O)(=O)N1 [Compound 178, (3R)—N-(3-cyano-2,4-difluoro-phenyl)-3-[(1S)-1-hydroxyethyl]-7-methyl-1,1-dioxo-2,3-dihydropyrrolo[3,4-f]thiazepine-6-carboxamide] | 16 | > 25 | 
14 | Cn1cc2c(c1C(=O)Nc1ccc(F)c(F)c1)OC[C@@H](C1(O)CC1)NS2(=O)=O [Compound 196, (3S)—N-(3,4-difluorophenyl)-3-(1-hydroxycyclopropyl)-7-methyl-1,1-dioxo-3,4-dihydro-2H-pyrrolo[3,4-b][1,4,5]oxathiazepine-6-carboxamide] | 65 | > 25 | 
15 | CC(C)[C@@H]1COc2c(ccc(F)c2C(=O)Nc2ccc(F)c(F)c2)S(=O)(=O)N1 [Compound 48, (3R)—N-(3,4-difluorophenyl)-7-fluoro-3-isopropyl-1,1-dioxo-3,4-dihydro-2H-5,1λ^6,2-benzoxathiazepine-6-carboxamide] | 84 | > 25 | 
16 | Cn1cc2c(c1C(=O)Nc1ccc(F)c(F)c1)OCC(C1CCN(CC(F)(F)F)CC1)NS2(=O)=O (stereo not shown) [Compound 78, N-(3,4-difluorophenyl)-7-methyl-1,1-dioxo-3-[1-(2,2,2-trifluoroethyl)-4-piperidyl]-3,4-dihydro-2H-pyrrolo[3,4-b][1,4,5]oxathiazepine-6-carboxamide] | 56 | > 25 | 
17 | C[C@@H](O)[C@@H]1COc2c(cn(C)c2C(=O)Nc2ccc(F)c(F)c2)S(=O)(=O)N1 [Compound 34, (3S)—N-(3,4-difluorophenyl)-3-[(1R)-1-hydroxyethyl]-7-methyl-1,1-dioxo-3,4-dihydro-2H-pyrrolo[3,4-b][1,4,5]oxathiazepine-6-carboxamide] | 56 | > 25 | 
18 | C[C@H]1NS(=O)(=O)c2cn(C)c(C(=O)Nc3ccc(F)c(F)c3)c2O[C@@H]1C [compound 231] | > 500 | > 25 | 
19 | Cn1cc2c(c1C(=O)Nc1ccc(F)c(F)c1)OCC(C(=O)O)NS2(=O)=O (stereo not shown) [compound 242] | > 130 | > 25 | 
20 | CC1CCC/C=C\Cc2c(cn(C)c2C(=O)Nc2ccc(F)c(F)c2)S(=O)(=O)N1 (stereo not shown) [Compound 2a, 8Z—N-(3,4-difluorophenyl)-4,13-dimethyl-2,2-dioxo-2λ^6-thia-3,13-diazabicyclo[9.3.0]tetradeca-1(14),8,11-triene-12-carboxamide] | 280 | > 25 | 
21 | Cn1cc2c(c1C(=O)Nc1ccc(F)c(F)c1)OCC(C)(c1ncccn1)NS2(=O)=O (racemic) [Compound 153, N-(3,4-difluorophenyl)-3,7-dimethyl-1,1-dioxo-3-pyrimidin-2-yl-2,4-dihydropyrrolo[3,4-b][1,4,5]oxathiazepine-6-carboxamide] | 68 | > 25 | 
22 | C=C1c2c(cn(C)c2C(=O)Nc2ccc(F)c(C(F)F)c2)S(=O)(=O)NC1C(C)C (stereo not shown) [compound 238] | 77 | > 25 | 
23 | Cn1cc2c(c1C(=O)Nc1ccc(F)c(C#N)c1)CCC(C(F)(F)F)NS2(=O)=O (racemic) [Compound 60, N-(3-cyano-4-fluoro-phenyl)-7-methyl-1,1-dioxo-3-(trifluoromethyl)-2,3,4,5-tetrahydropyrrolo[3,4-f]thiazepine-6-carboxamide] | 13 | > 25 | 
24 | Cn1cc2c(c1C(=O)Nc1ccc(F)c(F)c1)OCC(C(O)c1ccccn1)NS2(=O)=O (stereo not shown) [Compound 141a, N-(3,4-difluorophenyl)-3-[hydroxy(2-pyridyl)methyl]-7-methyl-1,1-dioxo-3,4-dihydro-2H-pyrrolo[3,4-b][1,4,5]oxathiazepine-6-carboxamide] | 30 | > 25 | 
25 | Cn1cc2c(c1C(=O)Nc1cc(F)c(F)c(F)c1)C=CC1(COC1)NS2(=O)=O [Compound 143, 7-methyl-1,1-dioxo-N-(3,4,5-trifluorophenyl)spiro[2H-pyrrolo[3,4-f]thiazepine-3,3′-oxetane]-6-carboxamide] | 24 | > 25 | 
26 | C[C@H]1C=Cc2c(cn(C)c2C(=O)Nc2ccnc(Br)c2)S(=O)(=O)N1 (single isomer, unassigned) [Compound 50, (3*S)—N-(2-bromo-4-pyridyl)-3,7-dimethyl-1,1-dioxo-2,3-dihydropyrrolo[3,4-f]thiazepine-6-carboxamide] | 2 | > 25 | 
27 | Cc1c2c(c(C(=O)Nc3ccc(F)c(F)c3)n1C)CC[C@H](C)NS2(=O)=O [Compound 152, (3S)—N-(3,4-difluorophenyl)-3,7,8-trimethyl-1,1-dioxo-2,3,4,5-tetrahydropyrrolo[3,4-f]thiazepine-6-carboxamide] | 14 | > 25 | 
28 | CC(C)[C@H]1COc2c(ccc(F)c2C(=O)Nc2ccc(F)c(F)c2)S(=O)(=O)N1 [Compound 44, (3S)—N-(3,4-difluorophenyl)-7-fluoro-3-isopropyl-1,1-dioxo-3,4-dihydro-2H-5,1λ^6,2-benzoxathiazepine-6-carboxamide] | 170 | > 25 | 
29 | C[C@@H](O)[C@H]1COc2c(cn(C)c2C(=O)Nc2ccc(F)c(F)c2)S(=O)(=O)N1 [Compound 33, (3R)—N-(3,4-difluorophenyl)-3-[(1R)-1-hydroxyethyl]-7-methyl-1,1-dioxo-3,4-dihydro-2H-pyrrolo[3,4-b][1,4,5]oxathiazepine-6-carboxamide] | 53 | > 25 | 
